Results published in US10416170B2, “Detection and removal of misfolded proteins/peptides” (OXPROTECT GMBH, priority 2011, dated 2019).

Test system: misfolded proteins
Assay: Binding of misfolded proteins to biotinylated peptide on streptavidin plate (OD 492 nm) or Biacore sensor chip
Details: statement in words; data only in figures
Experimental: Biotinylated PRKLYDY (SEQ ID NO: 5) was coated on a preblocked streptavidin plate for 1 hour at room temperature. After a washing step different concentrations of HOCl-modified albumin, or HOCl-modified fibrinogen, or HOCl-modified antithrombin, or HOCl-modified LDL (including negative control) were added for 1 hour at room temperature. After another washing step mouse anti HSA antibody was added to HOCl-modified albumin, rabbit anti fibrinogen antibody to HOCl-modified fibrinogen, rabbit anti antithrombin antibody to HOCl-modified antithrombin and mouse anti Apo B antibody to HOCl-modified LDL for 1 hour at room temperature. After another washing step the corresponding peroxidase coupled secondary antibody was added for 1 hour at room temperature. After a final washing step it was stained with o-phenylenediamine-substrate and the reaction was stopped after 30 min with 4 N sulphuric acid. The optical density was measured at 492 nm. The result is illustrated in FIG. 1A and FIG. 1B.
Biotinylated HWRRAHLLPRLP (SEQ ID NO: 2) was coated on a preblocked streptavidin plate for 1 hour at room temperature. After a washing step different concentrations of HOCl-modified albumin, or HOCl-modified fibrinogen, or HOCl-modified antithrombin, or HOCl-modified LDL (including negative control) were added for 1 hour at room temperature. […] The optical density was measured at 492 nm (FIG. 8A and FIG. 8B). […]

Substance	affinity for misfolded proteins (general binding partner)
HWRRAHLLPRLP (ADAM15 peptide aa position 286-297) [His, Trp, Arg, Arg, Ala, His, Leu, Leu, Pro, Arg, Leu, Pro]	high degree of affinity
PRKLYDY (Plasminogen peptide) [Pro, Arg, Lys, Leu, Tyr, Asp, Tyr]	high affinity
